# In PMC6476926, “Dichloro-Phenyl-Benzotriazoles: A New Selective Class of Human Respiratory Syncytial Virus Entry Inhibitors” (Frontiers in Chemistry, 2019):
# “Also recorded” adds a separate entry of the source.
# Assays:
# CV-B5 = experiment: microbe, parasite or virus in culture; format: cell-based, Human Enterovirus B [coxsackie type B5 (CV-B5)]; conditions: Enterovirus B, CVB5, Vero 76, read-out: EC50 CV-B5
# Reo-1 = experiment: microbe, parasite or virus in culture; format: cell-based, Reovirus type-1 (Reo-1); conditions: Reovirus sp., BHK, read-out: EC50 Reo-1
# RSV [1] = experiment: Time of addition assay; format: cell-based, Human Respiratory Syncytial Virus (RSV); conditions: 20 μM
# Experimental: After each incubation period, the monolayers were washed two times with maintenance medium and incubated with fresh medium until 10 h post-infection. Then, after 36 h the development of cytopathic effect (CPE) was evaluated microscopically and each sample was collected, centrifuged and frozen at −80°C. The viral titer was determined by plaque assay (or ELISA).
# BVDV = experiment: microbe, parasite or virus in culture; format: cell-based; conditions: Bovine viral diarrhea virus isolates and strains, MDBK, read-out: EC50 BVDV
# RSV strain B1 cp-52 = experiment: microbe, parasite or virus in culture; format: cell-based; conditions: human respiratory syncytial virus, Vero 76, read-out: 50% inhibitory concentration RSV cp-52
# RSV virions = experiment: Virucidal activity assay; format: cell-based, Human Respiratory Syncytial Virus (RSV); conditions: 20 μM, 4°C or 37°C, 1 h
# Experimental: The mixture without test sample was used as the control. At the end of incubation period, samples were serially diluted in media and titers were determined on Vero-76 cells at high dilutions, at which the compound was not active. Virus titers were determined by plaque assay in Vero-76 cells.
# RSV [2] = experiment: Antigen reduction assay (ELISA) in RSV-infected Vero-76 cells
# YFV = experiment: microbe, parasite or virus in culture; format: cell-based; conditions: Yellow fever virus, BHK, read-out: EC50 YFV
# RSV A2 [3] = experiment: Syncytium reduction assay; conditions: Vero-76, added 8 h p.i. at 50, 10, 2 μM, assessed 72 h p.i.
# [4] = Cytotoxicity in continuous cell lines (summary statement); format: cell-based; conditions: continuous cell lines from different organs and species (Table 1, Table S2); read-out: CC50 in most continuous cell lines
# Experimental: Exponentially growing MT-4 cells were seeded at an initial density of 4x10^5 cells/mL in 96-well plates containing RPMI-1640 medium, supplemented with 10% fetal bovine serum (FBS), 100 units/mL penicillin G and 100 μg/mL streptomycin. MDBK, Hep-2 and BHK cells were seeded at an initial density of 6 × 10^5, 5 × 10^5, and 1 × 10^6 cells/mL, respectively, in 96-well plates containing Minimum Essential Medium with Earle's salts (MEM-E), L-glutamine, 1 mM sodium pyruvate and 25 mg/L kanamycin, supplemented with 10% horse serum (MDBK) or 10% fetal bovine serum (FBS) (BHK; Hep-2). Vero-76 cells were seeded at an initial density of 5 × 10^5 cells/mL in 96-well plates containing in Dulbecco's Modified Eagle Medium (D-MEM) with L-glutamine and 25 mg/L kanamycin, supplemented with 10% FBS. Cell cultures were then incubated at 37°C in a humidified, 5% CO2 atmosphere, in the absence or presence of serial dilutions of test compounds. The test medium used for cytotoxic and antiviral assay contained 1% of the appropriate serum. Cell viability was determined after 72, 96, or 120 h at 37°C by the MTT method for MT-4, MDBK, Hep-2, BHK and Vero-76 cells (Budge et al., [2004]).
# Sb-1, VSV, VV, HSV-1 = experiment: organism not typed; format: cell-based; conditions: Vero 76, read-out: EC50 Sb-1, VSV, VV, HSV-1
# HIV-1IIIB = experiment: microbe, parasite or virus in culture; format: cell-based, Human Immunodeficiency Virus type-1 (HIV-1); conditions: Human immunodeficiency virus 1, MT4, read-out: EC50 HIV-1IIIB
# [5] = Cytotoxicity, MTT method, MT-4 cells; conditions: human
# RSV [6] = experiment: Cell pretreatment assay; format: cell-based, Human Respiratory Syncytial Virus (RSV); conditions: Vero-76 pretreated with 20 μM, 2 h at 4°C; titer 3 days post infection
# Experimental: After removal of the compound and two gentle washes, cells were infected with RSV. After virus adsorption to cells, the inoculum was removed and the cells were then overlaid with medium, incubated for 3 days at 37°C, and then virus titers were determined by plaque assay.
# RSV A2 [7] = experiment: Immunofluorescence attachment assay; format: cell-based, Human Respiratory Syncytial Virus (RSV); conditions: 4°C, Vero-76; 20 μM 10d, 6 μg/mL dextran sulfate, 5 μM 6-azauridine
# Experimental: Compounds' inhibitory effects on virus-cell binding event was measured by immunofluorescence performed according to the method described previously with some modifications (Maric et al., [2011]). […] After this incubation period, the monolayers were washed three times in cold PBS in order to remove unbound viral particles and then were fixed in paraformaldehyde 4%. The presence of bound virus was detected by indirect immunofluorescence. […] Abcam, Cambridge, United Kingdom). Cells were then washed three times in PBS-Tween-100 and incubated with a 1:500 dilution of an Alexa Fluor 488-labeled anti-mouse secondary antibody (Molecular Probes, Eugene, Oreg.). After a series of washes in PBS-Tween-100, cells were mounted with Vectashield (Vector Laboratories, Burlingame, CA) containing 4′,6-diamidino-2-phenylindole (DAPI) and images of each well were captured with the ZOE Fluorescent Cell Imager (Biorad).
# RSV [8] = experiment: microbe, parasite or virus in culture; format: cell-based, Human Respiratory Syncytial Virus (RSV) strain A2; conditions: human respiratory syncytial virus, Vero 76, read-out: EC50 RSV
# in vitro [9] = conditions: cattle (Bos taurus)
# [10] = Cytotoxicity, MTT method, Vero-76 cells; conditions: African green monkey (Cercopithecus aethiops)
# [11] = Cytotoxicity, MTT method, BHK cells; conditions: Syrian hamster (Mesocricetus auratus)
# RSV F-protein = conditions: read-out: experimental IC50; ref Battles et al., [2016]; cited from earlier work
# in vitro [12] = conditions: African green monkey (Cercopithecus aethiops)
Molecule,EC50 (CV-B5),melting point,EC50 (Reo-1),EC50 (BVDV),EC50 (YFV),"EC50 (Sb-1, VSV, VV, HSV-1)",EC50 (HIV-1IIIB),CC50 [5],EC50 (RSV [8]),CC50 (in vitro [9]),CC50 at 5 days [10],CC50 [11],other results
"O=C(Nc1ccc(-n2nc3cc(Cl)c(Cl)cc3n2)cc1)NC1CCCCC1 [10d, 1-[4-(5,6-dichloro-2H-benzo[d][1,2,3]triazol-2-yl)phenyl]-3-cyclohexylurea]",> 90 µM,> 300 °C,> 71 µM,> 100 µM,> 71 µM,> 90 µM,> 100 µM,> 100 µM,2 µM,> 100 µM,90 µM,71 µM,"inhibition of RSV, addition at later times (RSV [1]; m.o.i. 1, 4–10 h after infection): failed to exhibit significant antiviral activity; inhibition of RSV, addition in early phases (RSV [1]; m.o.i. 1, during the 2 h of infection (t = 0) and immediately after): most efficient inhibition was observed in early phases of infection; IC50 (RSV strain B1 cp-52): 7 ± 1 µM; virucidal effect (RSV virions): negligible; reduction of viral antigen (RSV [2]; ELISA, at 20 μM): 80%; EC50 (RSV [2]; human respiratory syncytial virus, Vero 76, read-out: EC50 viral antigen reduction): 5 µM; syncytium formation (RSV A2 [3]): the number and the size of syncytia decreased in a dose-dependent manner; also recorded: both size and number of syncytia did not increase; also recorded: effective in reducing both syncytia area and number at a concentration of 50 μM; also recorded: dose-dependent reduction of syncytia area and number; CC50 [4]: < 70 µM; inhibition of RSV infection after cell pretreatment (RSV [6]): failed to inhibit RSV infection; also recorded: failed to prevent viral infection; inhibition of viral attachment (RSV A2 [7]): does not inhibit viral attachment; also recorded: not able to block viral binding to cells"
"CCCNC(=O)Nc1ccc(-n2nc3cc(Cl)c(Cl)cc3n2)cc1 [10b, 1-[4-(5,6-dichloro-2H-benzo[d][1,2,3]triazol-2-yl)phenyl]-3-propylurea]",> 30 µM,> 300 °C,> 40 µM,> 78 µM,> 40 µM,> 30 µM,> 100 µM,> 100 µM,3 µM,78 µM,30 µM,40 µM,IC50 (RSV strain B1 cp-52): 7 ± 1 µM
"O=c1cnn([C@@H]2O[C@H](CO)[C@@H](O)[C@H]2O)c(=O)[nH]1 [6-azauridine, reference compound]",–,–,–,–,–,–,–,–,1.4 µM,–,≥ 14 µM,–,inhibition of viral attachment (RSV A2 [7]): not able to block viral binding
dextran sulfate [reference compound],–,–,–,–,–,–,–,–,–,–,–,–,inhibition of viral attachment (RSV A2 [7]): inhibits viral attachment; also recorded: efficiently blocked viral attachment
Cc1ccc(CCCO)c(NCc2ccc3nc(NCCCN4CCOCC4)n(Cc4nc(C)ccc4O)c3c2)c1 [TMC353121],–,–,–,–,–,–,–,–,–,–,–,–,IC50 (RSV F-protein): 0.0087 µM
"NC(=O)c1ncn([C@@H]2O[C@H](CO)[C@@H](O)[C@H]2O)n1 [ribavirin, reference compound]",–,–,–,–,–,–,–,–,7 µM,–,–,–,CC50 at 5 days (in vitro [12]): > 100 µM
"COc1cc(C(=O)Nc2ccc(-n3nc4cc(Cl)c(Cl)cc4n3)cc2)cc(OC)c1OC [8d, N-[4-(5,6-dichloro-2H-benzo[d][1,2,3]triazol-2-yl)phenyl]-3,4,5-trimethoxybenzamide]",> 80 µM,199 to 201 °C,> 35 µM,35 µM,> 35 µM,> 80 µM,> 63 µM,63 µM,3 µM,> 100 µM,80 µM,35 µM,IC50 (RSV strain B1 cp-52): 10 ± 2 µM
"O=C(NCc1ccccc1)Nc1ccc(-n2nc3cc(Cl)c(Cl)cc3n2)cc1 [10j, 1-[4-(5,6-dichloro-2H-benzo[d][1,2,3]triazol-2-yl)phenyl]-3-benzylurea]",> 100 µM,> 290 °C,> 100 µM,> 100 µM,> 100 µM,> 100 µM,> 100 µM,> 100 µM,> 100 µM,> 100 µM,> 100 µM,> 100 µM,–
"O=C(Nc1ccc(-n2nc3cc(Cl)c(Cl)cc3n2)cc1)c1ccccc1 [8a, N-[4-(5,6-dichloro-2H-benzo[d][1,2,3]triazol-2-yl)phenyl]benzamide]",> 100 µM,> 290 °C,> 100 µM,> 100 µM,> 100 µM,> 100 µM,> 100 µM,> 100 µM,> 100 µM,> 100 µM,> 100 µM,> 100 µM,–
"COc1ccc(NC(=O)Nc2ccc(-n3nc4cc(Cl)c(Cl)cc4n3)cc2)cc1 [10g, 1-[4-(5,6-dichloro-2H-benzo[d][1,2,3]triazol-2-yl)phenyl]-3-(4-methoxyphenyl)urea]",> 100 µM,> 290 °C,> 100 µM,> 100 µM,> 100 µM,> 100 µM,> 100 µM,> 100 µM,> 100 µM,> 100 µM,> 100 µM,> 100 µM,–
"N#Cc1ccc(C(=O)Nc2ccc(-n3nc4cc(Cl)c(Cl)cc4n3)cc2)cc1 [8h, N-[4-(5,6-dichloro-2H-benzo[d][1,2,3]triazol-2-yl)phenyl] 4-cyanobenzamide]",> 100 µM,263 to 265 °C,> 100 µM,11 µM,> 100 µM,> 100 µM,> 100 µM,> 100 µM,60 µM,> 100 µM,> 100 µM,> 100 µM,–
"O=C(Nc1ccc(-n2nnc3cc(Cl)c(Cl)cc32)cc1)c1ccc(C(F)(F)F)cc1 [7g, N-[4-(5,6-dichloro-1H-benzo[d][1,2,3]triazol-1-yl)phenyl]-4-(trifluoromethyl)benzamide]",> 90 µM,> 290 °C,> 100 µM,> 100 µM,> 100 µM,> 90 µM,> 100 µM,> 100 µM,5 µM,> 100 µM,9 µM,> 100 µM,–
